This passage reports GI50 and TGI results from PubChem BioAssay (NCI).

Among the test systems are HCT-116 colon; HL-60(TB) leukemia; K-562 leukemia; COLO 205 colon; HS 578T breast; DU-145 prostate; MALME-3M melanoma; OVCAR-4 ovarian.
Experiment in all cases: growth of human tumour cells (NCI), 48 h

Structures are written as SMILES.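 Briefly, cells in 96-well plates were exposed to five compound concentrations for 48 h, and endpoints were estimated by linear interpolation. The concentration for 50% growth inhibition is given as GI50. TGI: total growth inhibition.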 Some results are limits rather than exact numbers.

For the compound `Cc1ccc(-n2c3c(c4c(CN5CCOCC5)c(O)ccc42)CCc2ccccc2C3=O)cc1`, the GI50 was > 100 µM in the experiment on HCT-116 colon; 19.9 µM in the experiment on HL-60(TB) leukemia; 25.8 µM in the experiment with K-562 leukemia; > 100 µM in the experiment with COLO 205 colon; > 100 µM in the experiment on HS 578T breast; > 100 µM in the experiment on DU-145 prostate. The TGI in the experiment with HCT-116 colon is > 100 µM; in the experiment with HL-60(TB) leukemia, 92.2 µM; in the experiment on K-562 leukemia it was > 100 µM; with COLO 205 colon it was > 100 µM; with HS 578T breast it was > 100 µM; in the experiment on DU-145 prostate, > 100 µM.
On to `C=C(CNCCc1ccc(O)cc1)[C@@H]1CC[C@]2(CO)CC[C@]3(C)[C@H](CC[C@@H]4[C@@]5(C)CCC(N)C(C)(C)[C@@H]5CC[C@]43C)[C@@H]12` (stereo partly drawn), for which the GI50 with MALME-3M melanoma is 1.58 µM; in the experiment with COLO 205 colon it was 1.64 µM; with OVCAR-4 ovarian, 1.44 µM; in the experiment on DU-145 prostate, 1.63 µM. The TGI with MALME-3M melanoma is 3.09 µM; with COLO 205 colon it was 3.3 µM; in the experiment with OVCAR-4 ovarian, 2.95 µM; in the experiment with DU-145 prostate, 2.98 µM.
For the compound `COc1ccc2[nH]c(-c3ccccc3)cc2c1`, the GI50 was > 100 µM in the experiment with HCT-116 colon; > 100 µM with HL-60(TB) leukemia; 86.8 µM with K-562 leukemia; > 100 µM with MALME-3M melanoma; > 100 µM in the experiment on COLO 205 colon; 92.3 µM with OVCAR-4 ovarian. Moreover, the GI50 with HS 578T breast and with DU-145 prostate was > 100 µM throughout. Also, the TGI in the experiment on HCT-116 colon, in the experiment on HL-60(TB) leukemia, in the experiment with K-562 leukemia, in the experiment with MALME-3M melanoma, in the experiment on COLO 205 colon and in the experiment on OVCAR-4 ovarian was > 100 µM each time. In addition, the TGI in the experiment on HS 578T breast and in the experiment on DU-145 prostate was > 100 µM in each case.
On to `O=c1oc2ccc(F)cc2c(=O)n1-c1ccc(Br)cc1F`, for which the GI50 in the experiment on HCT-116 colon is 0.436 µM; with K-562 leukemia, 0.422 µM; in the experiment on MALME-3M melanoma it was 0.317 µM; in the experiment on COLO 205 colon, 4.03 µM; in the experiment with OVCAR-4 ovarian it was 1.27 µM; in the experiment on HS 578T breast, 0.621 µM. Moreover, the GI50 in the experiment on DU-145 prostate was 0.781 µM. Further, the TGI in the experiment with HCT-116 colon was 2.69 µM; in the experiment with K-562 leukemia, > 100 µM; in the experiment on MALME-3M melanoma, 2.03 µM; in the experiment with COLO 205 colon, 15.5 µM; in the experiment on OVCAR-4 ovarian, > 42.8 µM; with HS 578T breast, 7.87 µM. The TGI with DU-145 prostate came to 22.8 µM.
With `O=C(/C=C/c1cn(-c2ccccc2)nc1-c1ccc([N+](=O)[O-])cc1)c1ccc(Cl)cc1`, the GI50 in the experiment with HCT-116 colon was 2.42 µM; in the experiment on K-562 leukemia, 0.0883 µM; in the experiment on MALME-3M melanoma, 2.44 µM; in the experiment on HS 578T breast, 1.92 µM. Besides, the TGI was > 100 µM in the experiment with HCT-116 colon; > 100 µM in the experiment on HL-60(TB) leukemia; 2.73 µM in the experiment with K-562 leukemia; 6.59 µM with MALME-3M melanoma; 5.64 µM in the experiment with HS 578T breast.
As for `C[N+](C)=c1nc(N2CCOCC2)ss1`, the TGI in the experiment with HCT-116 colon, with HL-60(TB) leukemia and with K-562 leukemia was > 100 µM each time.
For the compound `CN(C)C/C=C/C(=O)Nc1ccc(C(=O)N2CCC[C@@H](Nc3ncc(Cl)c(-c4c[nH]c5ccccc45)n3)C2)cc1`, the GI50 in the experiment with HCT-116 colon is 0.154 µM; with HL-60(TB) leukemia it was 0.0353 µM; in the experiment with K-562 leukemia, 0.0863 µM; in the experiment on MALME-3M melanoma it was 0.0372 µM; in the experiment on COLO 205 colon it was 0.0338 µM; in the experiment with OVCAR-4 ovarian, 0.0664 µM. Further, the GI50 was 0.214 µM in the experiment with HS 578T breast and 0.215 µM with DU-145 prostate. In addition, the TGI is 10.6 µM with HCT-116 colon; 0.173 µM in the experiment on HL-60(TB) leukemia; > 100 µM in the experiment with K-562 leukemia; 0.315 µM in the experiment on MALME-3M melanoma; 0.122 µM with COLO 205 colon; 9.74 µM in the experiment on OVCAR-4 ovarian. The TGI with HS 578T breast was found to be 1.45 µM; with DU-145 prostate, 11.1 µM.
For the compound `C=CC(=O)Nc1cccc(Nc2nc(Nc3ccc(OCCOC(F)F)cc3)ncc2F)c1`, the GI50 with HCT-116 colon is 2.69 µM; in the experiment on HL-60(TB) leukemia, 2.02 µM; in the experiment with K-562 leukemia, 3.07 µM; in the experiment on MALME-3M melanoma, 2.49 µM; with COLO 205 colon it was 4.17 µM; in the experiment on OVCAR-4 ovarian, 2.66 µM. For the same compound, the GI50 in the experiment on HS 578T breast was 2.13 µM; with DU-145 prostate, 1.96 µM. The TGI in the experiment with HCT-116 colon was 20 µM; in the experiment with HL-60(TB) leukemia, 10.4 µM; with K-562 leukemia, > 100 µM; in the experiment on MALME-3M melanoma it was 35.1 µM; with COLO 205 colon it was 17.5 µM; in the experiment on OVCAR-4 ovarian, > 100 µM. Also, the TGI in the experiment with HS 578T breast was 8.77 µM; in the experiment on DU-145 prostate it was > 100 µM.
As for `CCN(CC)CCOc1ccc(/C=C2\CC3C4CC=C5C[C@@H](OC(C)=O)CC[C@]5(C)C4CC[C@]3(C)C2=O)cc1OC` (stereo partly drawn), the GI50 in the experiment on HCT-116 colon was 1.92 µM; in the experiment with K-562 leukemia, 1.29 µM; with MALME-3M melanoma it was 1.96 µM; in the experiment with COLO 205 colon, 15.9 µM; in the experiment on OVCAR-4 ovarian, 20.9 µM; in the experiment on HS 578T breast, 7.77 µM. In addition, in the experiment with DU-145 prostate, the GI50 was 3.87 µM. In addition, the TGI with HCT-116 colon was 5.61 µM; in the experiment on K-562 leukemia, 23.6 µM; with MALME-3M melanoma, 3.47 µM; with COLO 205 colon it was > 100 µM; with OVCAR-4 ovarian it was > 100 µM; with HS 578T breast it was 25.7 µM. Moreover, the TGI in the experiment with DU-145 prostate is 16.6 µM.
For `COc1ccc(NC(=O)c2sc3nc4c(cc3c2N)CCCC4)cc1`, the GI50 in the experiment with HCT-116 colon is 0.355 µM; in the experiment on HL-60(TB) leukemia, 0.252 µM; in the experiment with K-562 leukemia, 0.309 µM; with COLO 205 colon it was 0.876 µM; in the experiment on OVCAR-4 ovarian it was 1.98 µM; in the experiment with HS 578T breast, 0.567 µM. Moreover, the GI50 in the experiment on DU-145 prostate is 0.982 µM. For the same compound, the TGI in the experiment on HCT-116 colon was 11 µM; in the experiment with HL-60(TB) leukemia it was 0.624 µM; with K-562 leukemia, > 100 µM; with COLO 205 colon, 6.46 µM; in the experiment on OVCAR-4 ovarian, > 100 µM; in the experiment on HS 578T breast, > 100 µM. Besides, in the experiment on DU-145 prostate, the TGI is > 100 µM.
As for `Cn1cc(CO)c2ccccc21`, the GI50 is 26.9 µM in the experiment on HCT-116 colon; 32.5 µM in the experiment with HL-60(TB) leukemia; 17.5 µM in the experiment on K-562 leukemia; 30.3 µM in the experiment with COLO 205 colon; 56.5 µM in the experiment on OVCAR-4 ovarian; 38.5 µM with HS 578T breast. Besides, the GI50 in the experiment with DU-145 prostate is > 100 µM. Further, the TGI with HCT-116 colon, with HL-60(TB) leukemia, with K-562 leukemia, in the experiment with COLO 205 colon, with OVCAR-4 ovarian and in the experiment with HS 578T breast was > 100 µM in each case. Further, the TGI with DU-145 prostate was > 100 µM.
As for `COc1cc(O)c(C(C)=O)c(O)c1`, the TGI in the experiment with HCT-116 colon, with K-562 leukemia, in the experiment on MALME-3M melanoma, with COLO 205 colon, in the experiment with OVCAR-4 ovarian and with HS 578T breast was > 100 µM throughout. Further, in the experiment on DU-145 prostate, the TGI was > 100 µM.
